PubChem BioAssay AID1249 (Columbia University Molecular Screening Center, 2008)
Active and inactive are the calls of the source. How the calls were made is not given here.

assay: cellular cytoskeleton assembly phenotype modulators – imaging, high-content imaging, retest and dose response, confirmation (AID 1249); conditions: cell-based imaging, cytoskeleton assembly phenotype, high content; at 2 µM; stronger effect = higher value;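 further: compound exposure lasted 24 h before fixation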;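 on inhibition: plate controls were untreated cells for no effect and reference compound treated cells for full effect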

Structure (SMILES)	inhibition
CCCCCCCCCCn1c2c(c(=N)c3c1CCC3)CCC2	-24.6% (inactive)
COc1ccc(Cn2nnnc2C(c2cccs2)N2CCSCC2)cc1 (centres undefined)	-3.9% (inactive)
Cn1nc(C(F)(F)F)c(C(=O)Nc2ccc(F)cc2F)c1Sc1ccc(C(F)(F)F)cc1	13.2% (inactive)
COc1ccc(CCN(Cc2cc3cccc(C)c3[nH]c2=O)C(=O)N2CCCC2)cc1OC	4.4% (inactive)
CCCCNC(=O)CSc1cc(=O)n(C)c2ccccc12	-21.1% (inactive)
CCOC(=O)c1oc2ccccc2c1NC(=O)Cc1cccs1	0.3% (inactive)
Cc1cccnc1Nc1nc(-c2ccccn2)cs1	-5.7% (inactive)
CCOc1ccc(-n2cc(C(=O)NCc3ccco3)c3cc(OC)c(OC)cc3c2=O)cc1	-5.9% (inactive)
Cc1ccc(CNC(=O)Cn2ccc3ccccc3c2=O)o1	-10.7% (inactive)
CSc1ccc(S(=O)(=O)Nc2ccc3c4c(cccc24)CC3)cc1	-10% (inactive)
Cn1nc(CC(=O)NC2CCCCCC2)c2ccccc2c1=O	-17.6% (inactive)
Cc1noc(C)c1S(=O)(=O)N1CCC2(CC1)OCCO2	-7.2% (inactive)
O=C(O)c1cc2nc3c(c(C(F)(F)F)n2n1)CCc1ccccc1-3	3.7% (inactive)
C=CCn1c(SCC(=O)Nc2ccc(C(=O)OCC)cc2)nnc1-c1sc(N)nc1C	-0.9% (inactive)
COC(=O)C1C(=O)C2=C(CC1C)NC(=O)CC2c1cccc(C)c1 (centres undefined)	-3.5% (inactive)
Cc1n[nH]c(=O)nc1NCc1ccccc1	4% (inactive)
CC(C)(C)NS(=O)(=O)c1ccc(Oc2ncc(C(F)(F)F)cc2Cl)cc1	12.1% (inactive)
O=C(CCCCCN1C(=O)c2ccccc2C1=O)Nc1nccs1	8.8% (inactive)
Cc1cc(NC(=O)CSc2nc(-c3ccco3)cc(C(F)(F)F)n2)no1	-2.8% (inactive)
COc1ccc(-c2cc(C(F)(F)F)nc(S(=O)(=O)CCC(=O)N3CCOCC3)n2)cc1	0% (inactive)
COc1cc(/C=C(/C#N)C(=O)NCCc2c[nH]c3ccccc23)ccc1OCc1ccccc1F	2.3% (inactive)
COc1ccc(OC)c(C(=O)c2coc3ccc(O)cc23)c1	-8.7% (inactive)
COC(=O)c1ccccc1NC(=O)Cn1c(-c2nonc2N)nc2ccccc21	4.2% (inactive)
COc1cc(C(=O)N(Cc2ccco2)Cc2cc3ccccc3[nH]c2=O)cc(OC)c1OC	-1% (inactive)
COc1ccc(Cn2c(CCC(=O)O)nc3cccnc32)cc1	-3% (inactive)

Structure (SMILES)	inhibition
CC1CCCN(c2nc3ccsc3c(=O)s2)C1 (centres undefined)	2.9% (inactive)
C=C1N2CCC(CC2)C1(O)c1ccccc1C (centres undefined)	-0.8% (inactive)
Cc1cc(C)c(C#N)c(SCc2nc3ccccc3[nH]2)n1	-5.7% (inactive)
CC1=C(C#N)C(Nc2cccc(C)n2)(C(F)(F)F)C(=O)N1 (centres undefined)	7% (inactive)
O=C(O)C1C2C=CC(O2)C1C(=O)Nc1ccc(S(=O)(=O)Nc2ccccc2)cc1 (centres undefined)	-5.8% (inactive)
COC(=O)c1[nH]c2cc(OC)ccc2c1NC(=O)CN1CCC(C(N)=O)(N2CCCCC2)CC1	3.6% (inactive)
CCOC(=O)c1cnn(-c2nc(-c3ccc(C)cc3)cs2)c1C(F)(F)F	-7.1% (inactive)
Cc1cc(OCc2ccc(F)cc2)nc(-c2ccccc2O)n1	2.1% (inactive)
Cn1c(CNc2ccccc2O)nc2ccccc21	1.8% (inactive)
COC(=O)c1sccc1NC(=O)CCC1CCCC1	-0.4% (inactive)
O=C1C2CCCN2C(c2cccnc2)N1c1ccc(Cl)c(Cl)c1 (centres undefined)	3.6% (inactive)
CC1C(c2ccccc2)C(C#N)(C#N)C2(C#N)C(=O)NC1(N)C2C (centres undefined)	0.4% (inactive)
C=CCn1c(=O)c2c(nc3n2CC(C)CN3c2cccc(OC)c2)n(C)c1=O (centres undefined)	-8.1% (inactive)
Cc1cccc(OCCN2CSC(=S)N(C)C2)c1	2.2% (inactive)
COc1ccc(CN2CCCCC2C(=O)Nc2ccc(OC)c(OCC(C)C)c2)cc1OC (centres undefined)	-2.9% (inactive)
C=CCn1c(N)c(C(=O)OCC(C)C)c2nc3ccccc3nc21	-0.2% (inactive)
CC(=O)c1c(C)oc2ccc(N(C(C)=O)S(=O)(=O)c3ccc(Cl)c([N+](=O)[O-])c3)cc12	-11.2% (inactive)
Cc1cc(C)n(C(=O)c2ccc(NC(=O)C3COc4ccccc4O3)cc2)n1 (centres undefined)	1.1% (inactive)
COc1ccc(OC)c2sc(NC(=O)CCS(=O)(=O)c3ccccc3)nc12	-5.2% (inactive)
O=c1n(Cc2ccccc2F)c2ccccc2n1Cc1ccccc1F	5.3% (inactive)
CCc1nnc(NC(=O)CSc2nnc(COc3ccccc3)n2-c2ccc(C)cc2)s1	-4.1% (inactive)
O=C(O)C1CCC(N2C(=O)C3CCCCC3C2=O)CC1 (centres undefined)	-0.4% (inactive)
C=CCNC(=O)C1CC(=O)N(c2ccc(OCC(=O)Nc3cccc(OC)c3)cc2)C1 (centres undefined)	-2% (inactive)
NC1=CC(=O)c2cccc3cccc1c23	-0.4% (inactive)
CN1CCCCc2c1[nH]c1ccccc1c2=O	5.2% (inactive)

Structure (SMILES)	inhibition
CCN(CC)c1ccc(-c2nn3c(-c4n[nH]c5c4CCC5)nnc3s2)cc1	5.7% (inactive)
COc1cccc(C(=O)COc2cccc(NC(=O)c3cccc([N+](=O)[O-])c3)c2)c1	-2.2% (inactive)
COc1ccc(N=c2oc3ccc(OC)cc3cc2-c2nc3ccccc3[nH]2)cc1	4.3% (inactive)
CCNC(=O)CCn1nc(-c2ccc(Cl)cc2)c2ccccc2c1=O	-0.2% (inactive)
CCCCCCOC(=O)NCC(O)c1ccccc1 (centres undefined)	9.1% (inactive)
CCCn1nc([N+](=O)[O-])c(C(C#N)c2nc3ccccc3s2)c(Cl)c1=O (centres undefined)	1.3% (inactive)
Cc1ccc(CC2S/C(=C(/C#N)C(=O)NCc3ccco3)N(c3ccccc3)C2=O)cc1 (centres undefined)	2.8% (inactive)
CCOc1ccccc1C(=O)NCCC(=O)O	10.6% (inactive)
COc1ccc(CN2C(=O)[C@@H]3C(c4ccc(F)cc4)=NO[C@@H]3C2=O)cc1	6.5% (inactive)
CC(=O)Nc1ccc(NC2(C)C(=O)c3ccccc3C2=O)cc1	0.7% (inactive)
OCCCCNc1cccc2ccccc12	-7.2% (inactive)
O=C(CF)NC(Nc1cccc2cccnc12)C(Cl)(Cl)Cl (centres undefined)	-8.8% (inactive)
COc1ccc(-c2cc(=O)[nH]c(NCc3ccccc3)n2)cc1	-1.7% (inactive)
COC(=O)c1c(NC(=O)c2ccc(S(=O)(=O)N3CCOCC3)cc2)sc2c1CCN(C)C2	-2.4% (inactive)
CCCc1cc(=O)[nH]c(SCC(=O)Nc2nonc2N)n1	2.7% (inactive)
CC(=O)Nc1ccc(S(=O)(=O)n2cnc(C)c2)cc1	6.7% (inactive)
CSc1nc2nccc(-c3ccc(Oc4ccccc4)cc3)n2n1	-15.1% (inactive)
Nc1nnnn1/N=C/C(Br)=C/c1ccccc1	1.2% (inactive)
COc1ccc(Cl)c(NC(=O)Nc2c(C)n(-c3ccccc3)c(=O)n2C)c1	0.8% (inactive)
CC(=O)c1cccc(NC(=O)NCc2cccnc2)c1	12.9% (inactive)
CCCCSc1nc(C)cc(SCC(=O)N/N=C/c2cccc(OC)c2O)n1	-6.7% (inactive)
N#Cc1c(NCc2ccccc2)ccnc1NCc1cccnc1	1.2% (inactive)
COc1ccc(CCNc2oc(COc3ccccc3F)nc2C#N)cc1	0% (inactive)
O=Cc1cc2ccccc2nc1SCc1ccc(Cl)cc1	8.6% (inactive)
Cc1nc(-c2cccnc2)sc1C(=O)Nc1cccc(C(F)(F)F)c1	2.2% (inactive)

Structure (SMILES)	inhibition
Cc1ccc(NC(=O)c2oc3c(c2C)C(=O)CC(C)(C)C3)cc1	-7.9% (inactive)
COc1ccc2[nH]c(=O)c(CN(C(=O)c3ccncc3)C(C)C)cc2c1	-5.6% (inactive)
CCOc1cc(NC(=O)c2ccco2)c(OCC)cc1NC(=O)CCC(=O)NCc1cccnc1	5.4% (inactive)
CCOC(=O)C1CCN(C(=O)c2cn(CCOC)c(=O)c3c2c2ccccc2n3C)CC1	-1.6% (inactive)
CCC(=O)Nc1cccc(C(=O)/C=C/c2cc(Br)ccc2OC)c1	0% (inactive)
O=C1c2cccc3c([N+](=O)[O-])ccc(c23)C(=O)N1c1ccc(Cl)cn1	-13.4% (inactive)
COc1ccc(NC(=O)N(Cc2ccc3c(c2)OCO3)C2CC(=O)N(c3ccc(OC)cc3)C2=O)cc1 (centres undefined)	-22.4% (inactive)
COc1ccc(-c2nc(C#N)c(NCCCN(C)C)o2)cc1OC	4.5% (inactive)
c1ccc(-n2ncc3c(NCc4ccccn4)ncnc32)cc1	24.5% (inactive)
O=C(NCCO)C(c1ccccc1)c1ccccc1	3.5% (inactive)
CC(/C=C/c1ccco1)=N\NC(=O)c1cc(C)[nH]n1	-14.4% (inactive)
O=C(CS(=O)(=O)c1cn(Cc2cccc(F)c2)c2ccccc12)N1CCCCC1	-1.5% (inactive)
CC(C)(C)C(=O)/C(=C\c1cccc([N+](=O)[O-])c1)n1cncn1	0.1% (inactive)
CCOC(=O)N1CCN(C(=O)COc2ccc(Cl)cc2C)CC1	0.3% (inactive)
Cn1c(NC(=O)C2c3ccccc3Oc3ccccc32)cc(=O)n(C)c1=O	-0.3% (inactive)
O=S(=O)(C/C(=C/CO)S(=O)(=O)c1ccccc1)c1ccccc1	-4.1% (inactive)
O=C(OCn1ncc(Br)c(Br)c1=O)c1c(F)cccc1F	-3.7% (inactive)
CCOC(=O)C1=C(c2ccccc2)O/C(=C(/C#N)C(F)(F)F)S1	2.3% (inactive)
COc1ccc2[nH]c(=O)c(CN(Cc3ccc4c(c3)OCO4)C(C)=O)cc2c1	5.1% (inactive)
CCOC(=O)c1ccc(NC(=O)CCNc2c(N3CCCC3)c(=O)c2=O)cc1	1.6% (inactive)
O=C(CC(c1ccccc1)c1ccccc1)NCC1CCCO1 (centres undefined)	-0.2% (inactive)
CCCCN(C)CCCNC(=O)c1ccc2c(c1)NC(=O)C(N1CCOCC1)S2 (centres undefined)	5.4% (inactive)
CN(Cc1ccccc1)C(=O)c1ccccc1NC(=O)c1ccccc1	5.1% (inactive)

same assay, conditions: cell-based imaging, cytoskeleton assembly phenotype, high content; cell count; at 10 µM; stronger effect = lower value

Structure (SMILES)	cell count
COc1cc(C(=O)N/N=C/c2ccsc2C)cc(OC)c1OC	34.2%
